Laboratory results as given in paper PMC10653868, “The LytS-type histidine kinase BtsS is a 7-transmembrane receptor that binds pyruvate” (mBio, 2023).

Key:
Experiment in all cases: DRaCALA with […]-pyruvate and competition with cold pyruvate, membrane vesicles
Type in all cases: binding
BtsS [1] = biological target: T1, BtsS (Escherichia coli, UniProt P0AD14)
T1 construct: BtsS-6His in membrane vesicles of E. coli MG1655 ΔbtsSRΔypdABC

BtsS [2] = biological target: T2, BtsS (Escherichia coli, UniProt P0AD14, S113A)
T2 construct: BtsS-S113A-6His in membrane vesicles of E. coli MG1655 ΔbtsSRΔypdABC

BtsS [3] = biological target: T3, BtsS (Escherichia coli, UniProt P0AD14, C110A)
T3 construct: BtsS-C110A-6His in membrane vesicles of E. coli MG1655 ΔbtsSRΔypdABC

BtsS [4] = biological target: T4, BtsS (Escherichia coli, UniProt P0AD14, R99A)
T4 construct: BtsS-R99A-6His in membrane vesicles of E. coli MG1655 ΔbtsSRΔypdABC

BtsS [5] = biological target: T5, BtsS (Escherichia coli, UniProt P0AD14, R72A)
T5 construct: BtsS-R72A-6His in membrane vesicles of E. coli MG1655 ΔbtsSRΔypdABC
T5 sequence (P0AD14 whole entry R72A): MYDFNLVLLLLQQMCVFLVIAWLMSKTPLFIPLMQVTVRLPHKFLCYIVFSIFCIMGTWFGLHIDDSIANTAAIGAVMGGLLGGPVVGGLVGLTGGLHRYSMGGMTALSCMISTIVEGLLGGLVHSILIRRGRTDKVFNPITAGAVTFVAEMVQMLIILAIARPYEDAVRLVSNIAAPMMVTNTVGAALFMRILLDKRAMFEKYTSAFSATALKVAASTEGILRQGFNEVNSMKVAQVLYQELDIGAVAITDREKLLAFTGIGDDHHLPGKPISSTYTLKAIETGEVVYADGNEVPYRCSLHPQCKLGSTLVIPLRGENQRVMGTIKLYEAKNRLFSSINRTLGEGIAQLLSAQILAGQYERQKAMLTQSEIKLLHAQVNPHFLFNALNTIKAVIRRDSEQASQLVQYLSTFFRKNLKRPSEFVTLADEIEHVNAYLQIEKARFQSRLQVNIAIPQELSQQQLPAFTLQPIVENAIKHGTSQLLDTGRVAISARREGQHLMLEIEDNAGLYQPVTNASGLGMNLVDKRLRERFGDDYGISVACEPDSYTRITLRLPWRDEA

T4 sequence (P0AD14 whole entry R99A): as the sequence (P0AD14 whole entry R72A) above, with A72R, R99A counted along it
T2 sequence (P0AD14 whole entry S113A): as the sequence (P0AD14 whole entry R72A) above, with A72R, S113A counted along it
T1 sequence (P0AD14 whole entry): as the sequence (P0AD14 whole entry R72A) above, with A72R counted along it
T3 sequence (P0AD14 whole entry C110A): as the sequence (P0AD14 whole entry R72A) above, with A72R, C110A counted along it

CC(=O)C(=O)O [pyruvate]
Kd (BtsS [1]): 67.3 ± 10.6 µM
Kd (BtsS [2]): 284 ± 8 µM
Kd (BtsS [3]): 375 ± 21.2 µM
Kd (BtsS [4]): 245 ± 10.1 µM
Kd (BtsS [5]): 107 ± 12.3 µM
